Earlier results in PubChem BioAssay AID1259409 (Chemical Carcinogenesis Research Information System (CCRIS), 2018).

System: rodent chemically induced tumor inhibition, incidence and multiplicity
Test: CCRIS tumor inhibitor studies
Conditions: Dose [Inhibitor]: 0, Promoter: NONE USED

For `C=C(C)[C@H]1CC=C(C)CC1`, the “tumour outcome (control, treated, inhibition, significance)” value (Carcinogen: METHYLCHOLANTHRENE, 56-49-5, 0.5 ML 1/WK FOR 1 YR BEGINNING POST CARCINOGEN TREATMENT (STUDY DURATION: 24 MO), Route [Inhibitor]: GAVAGE, Species: MOUSE, Strain/Sex: SWISS/MALE, Target Tissue: Type of Lesion: SKIN: SARCOMA AND CARCINOMA, Dose [Carcinogen]: 0.01 MG ON D 1, 7, 14 AND 21 AFTER BIRTH) is given as 5/13 (38%), 2/14 (14%), 63%, not calculated, the “tumour outcome (control, treated, inhibition, significance)” value (Carcinogen: METHYLCHOLANTHRENE, 56-49-5, 0.5 ML 1/WK FOR 1 YR BEGINNING POST CARCINOGEN TREATMENT (STUDY DURATION: 24 MO), Route [Inhibitor]: GAVAGE, Species: MOUSE, Strain/Sex: SWISS/MALE, Target Tissue: Type of Lesion: SPLEEN: LYMPHOMA, Dose [Carcinogen]: 0.01 MG ON D 1, 7, 14 AND 21 AFTER BIRTH) is given as 2/13 (15%), 3/14 (21%), -40%, not calculated and the “tumour outcome (control, treated, inhibition, significance)” value (Carcinogen: N-ETHYL-N-HYDROXYETHYLNITROSAMINE, 13147-25-6, 150 MG/KG/D IN CORN OIL 5 D/WK FOR 30 WK BEGINNING POST CARCINOGEN TREATMENT (STUDY DURATION: 32 WK), Route [Inhibitor]: GAVAGE, Species: RAT, Strain/Sex: F344/MALE, Target Tissue: Type of Lesion: LIVER: TUMOR, Dose [Carcinogen]: 500 PPM IN DRINKING WATER FOR 2 WK) is given as 26/30 (87%), 17/31 (55%), 37%, p<0.01. The “tumour outcome (control, treated, inhibition, significance)” value (Carcinogen: N-NITROSOMETHYLUREA, 684-93-5, 5% IN DIET BEGINNING 1 WK POST CARCINOGEN TREATMENT AND CONTINUING FOR DURATION OF STUDY (STUDY DURATION: 23 WK), Route [Inhibitor]: ORAL, Species: RAT, Strain/Sex: WISTAR/FEMALE, Target Tissue: Type of Lesion: MAMMARY GLAND: TUMOR, Dose [Carcinogen]: 50 MG/KG ONCE) was 80%, 50%, 38%, p<0.001, the “tumour outcome (control, treated, inhibition, significance)” value (Carcinogen: N-NITROSOMETHYLUREA, 684-93-5, 5% IN DIET BEGINNING 2 WK PRIOR TO CARCINOGEN TREATMENT AND CONTINUING FOR DURATION OF STUDY (STUDY DURATION: 23 WK), Route [Inhibitor]: ORAL, Species: RAT, Strain/Sex: WISTAR/FEMALE, Target Tissue: Type of Lesion: MAMMARY GLAND: TUMOR, Dose [Carcinogen]: 50 MG/KG ONCE) was 80%, 45%, 47%, p<0.001 and the “tumour outcome (control, treated, inhibition, significance)” value (Carcinogen: N-NITROSOMETHYLUREA, 684-93-5, 5% IN DIET FOR 2 WK PRIOR TO AND 1 WK POST CARCINOGEN TREATMENT (STUDY DURATION: 23 WK), Route [Inhibitor]: ORAL, Species: RAT, Strain/Sex: WISTAR/FEMALE, Target Tissue: Type of Lesion: MAMMARY GLAND: TUMOR, Dose [Carcinogen]: 50 MG/KG ONCE) was 80%, 74%, 8%, not significant. For the same compound, the “tumour outcome (control, treated, inhibition, significance)” value (Carcinogen: SAFROLE, 94-59-7, 0.5 ML 1/WK FOR 1 YR BEGINNING POST CARCINOGEN TREATMENT (STUDY DURATION: 24 MO), Route [Inhibitor]: GAVAGE, Species: MOUSE, Strain/Sex: SWISS/FEMALE, Target Tissue: Type of Lesion: LUNG: PAPILLARY ADENOCARCINOMA, Dose [Carcinogen]: 0.2 MG ON D 1 AND 7 AFTER BIRTH THEN 0.4 MG ON D 14 AND 21) was 3/18 (17%), 2/19 (11%), 35%, not calculated, the “tumour outcome (control, treated, inhibition, significance)” value (Carcinogen: SAFROLE, 94-59-7, 0.5 ML 1/WK FOR 1 YR BEGINNING POST CARCINOGEN TREATMENT (STUDY DURATION: 24 MO), Route [Inhibitor]: GAVAGE, Species: MOUSE, Strain/Sex: SWISS/FEMALE, Target Tissue: Type of Lesion: SKIN: SARCOMA, Dose [Carcinogen]: 0.2 MG ON D 1 AND 7 AFTER BIRTH THEN 0.4 MG ON D 14 AND 21) was 2/18 (11%), 0/19 (0%), 100%, not calculated and the “tumour outcome (control, treated, inhibition, significance)” value (Carcinogen: SAFROLE, 94-59-7, 0.5 ML 1/WK FOR 1 YR BEGINNING POST CARCINOGEN TREATMENT (STUDY DURATION: 24 MO), Route [Inhibitor]: GAVAGE, Species: MOUSE, Strain/Sex: SWISS/MALE, Target Tissue: Type of Lesion: LIVER: HEPATOCELLULAR CARCINOMA, Dose [Carcinogen]: 0.2 MG ON D 1 AND 7 AFTER BIRTH THEN 0.4 MG ON D 14 AND 21) was 7/24 (29%), 0/24 (0%), 100%, p<0.005. For the same compound, the “tumour outcome (control, treated, inhibition, significance)” value (Carcinogen: SAFROLE, 94-59-7, 0.5 ML 1/WK FOR 1 YR BEGINNING POST CARCINOGEN TREATMENT (STUDY DURATION: 24 MO), Route [Inhibitor]: GAVAGE, Species: MOUSE, Strain/Sex: SWISS/MALE, Target Tissue: Type of Lesion: LUNG: PAPILLARY ADENOCARCINOMA, Dose [Carcinogen]: 0.2 MG ON D 1 AND 7 AFTER BIRTH THEN 0.4 MG ON D 14 AND 21) was 5/24 (21%), 1/24 (4%), 81%, not calculated, the “tumour outcome (control, treated, inhibition, significance)” value (Carcinogen: SAFROLE, 94-59-7, 0.5 ML 1/WK FOR 1 YR BEGINNING POST CARCINOGEN TREATMENT (STUDY DURATION: 24 MO), Route [Inhibitor]: GAVAGE, Species: MOUSE, Strain/Sex: SWISS/MALE, Target Tissue: Type of Lesion: SKIN: SARCOMA, Dose [Carcinogen]: 0.2 MG ON D 1 AND 7 AFTER BIRTH THEN 0.4 MG ON D 14 AND 21) was 2/24 (8%), 0/24 (0%), 100%, not calculated and the “tumour outcome (control, treated, inhibition, significance)” value (Carcinogen: SAFROLE, 94-59-7, 0.5 ML 1/WK FOR 1 YR BEGINNING POST CARCINOGEN TREATMENT (STUDY DURATION: 24 MO), Route [Inhibitor]: GAVAGE, Species: MOUSE, Strain/Sex: SWISS/MALE, Target Tissue: Type of Lesion: SPLEEN: LYMPHOMA, Dose [Carcinogen]: 0.2 MG ON D 1 AND 7 AFTER BIRTH THEN 0.4 MG ON D 14 AND 21) was 6/24 (25%), 1/24 (4%), 84%, not calculated. For the same compound, the “tumour outcome (control, treated, inhibition, significance)” value (Carcinogen: SAFROLE, 94-59-7, 0.5 ML 1/WK FOR 1 YR BEGINNING POST CARCINOMA TREATMENT (STUDY DURATION: 24 MO), Route [Inhibitor]: GAVAGE, Species: MOUSE, Strain/Sex: SWISS/FEMALE, Target Tissue: Type of Lesion: SPLEEN: LYMPHOMA, Dose [Carcinogen]: 0.2 MG ON D 1 AND 7 AFTER BIRTH THEN 0.4 MG ON D 14 AND 21) was 9/18 (50%), 2/19 (11%), 78%, not calculated, the “tumour outcome (control, treated, inhibition, significance)” value (Carcinogen: TANNIC ACID, 1401-55-4, 0.5 ML 1/WK FOR 1 YR BEGINNING POST CARCINOGEN TREATMENT (STUDY DURATION: 24 MO), Route [Inhibitor]: GAVAGE, Species: MOUSE, Strain/Sex: SWISS/FEMALE, Target Tissue: Type of Lesion: LUNG: PAPILLARY ADENOCARCINOMA, Dose [Carcinogen]: 25 MG/KG BW ON D 1, 7, 14 AND 21 AFTER BIRTH) was 2/8 (25%), 0/9 (0%), 100%, not calculated and the “tumour outcome (control, treated, inhibition, significance)” value (Carcinogen: TANNIC ACID, 1401-55-4, 0.5 ML 1/WK FOR 1 YR BEGINNING POST CARCINOGEN TREATMENT (STUDY DURATION: 24 MO), Route [Inhibitor]: GAVAGE, Species: MOUSE, Strain/Sex: SWISS/FEMALE, Target Tissue: Type of Lesion: SPLEEN: LYMPHOMA, Dose [Carcinogen]: 25 MG/KG BW ON D 1, 7, 14 AND 21 AFTER BIRTH) was 4/8 (50%), 3/9 (33%), 34%, not calculated. For the same compound, the “tumour outcome (control, treated, inhibition, significance)” value (Carcinogen: TANNIC ACID, 1401-55-4, 0.5 ML 1/WK FOR 1 YR BEGINNING POST CARCINOGEN TREATMENT (STUDY DURATION: 24 MO), Route [Inhibitor]: GAVAGE, Species: MOUSE, Strain/Sex: SWISS/MALE, Target Tissue: Type of Lesion: LUNG: PAPILLARY ADENOCARCINOMA, Dose [Carcinogen]: 25 MG/KG BW ON D 1, 7, 14 AND 21 AFTER BIRTH) was 3/12 (25%), 0/12 (0%), 100%, not calculated and the “tumour outcome (control, treated, inhibition, significance)” value (Carcinogen: TANNIC ACID, 1401-55-4, 0.5 ML 1/WK FOR 1 YR BEGINNING POST CARCINOGEN TREATMENT (STUDY DURATION: 24 MO), Route [Inhibitor]: GAVAGE, Species: MOUSE, Strain/Sex: SWISS/MALE, Target Tissue: Type of Lesion: SPLEEN: LYMPHOMA, Dose [Carcinogen]: 25 MG/KG BW ON D 1, 7, 14 AND 21 AFTER BIRTH) was 5/12 (42%), 3/12 (25%), 40%, not calculated.
